From ChEMBL document CHEMBL5291721, “A preclinical secondary pharmacology resource illuminates target-adverse drug reaction associations of marketed drugs” (Nat Commun, 2023)

Assays:
[1] = molecular target: Voltage-dependent L-type calcium channel subunit alpha-1C (Rattus norvegicus, UniProt P22002); assay type: functional
[2] = molecular target: T1, Muscarinic acetylcholine receptor M1 (Homo sapiens, UniProt P11229); assay type: functional
T1 sequence (P11229 whole entry): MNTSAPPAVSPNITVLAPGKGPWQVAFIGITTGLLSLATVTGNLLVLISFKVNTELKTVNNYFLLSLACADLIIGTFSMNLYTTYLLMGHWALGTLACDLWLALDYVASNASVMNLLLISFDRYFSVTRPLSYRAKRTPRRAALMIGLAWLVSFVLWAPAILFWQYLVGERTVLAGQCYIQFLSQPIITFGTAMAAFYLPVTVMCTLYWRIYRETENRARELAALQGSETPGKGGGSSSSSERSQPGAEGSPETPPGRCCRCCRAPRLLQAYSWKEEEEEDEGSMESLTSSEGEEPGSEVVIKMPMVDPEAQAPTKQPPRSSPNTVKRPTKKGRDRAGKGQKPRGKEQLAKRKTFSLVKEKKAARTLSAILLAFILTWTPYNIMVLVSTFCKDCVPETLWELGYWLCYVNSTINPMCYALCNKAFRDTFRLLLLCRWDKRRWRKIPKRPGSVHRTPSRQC

[3] = molecular target: T2, Muscarinic acetylcholine receptor M2 (Homo sapiens, UniProt P08172); assay type: functional, cell-based
T2 sequence (P08172 whole entry): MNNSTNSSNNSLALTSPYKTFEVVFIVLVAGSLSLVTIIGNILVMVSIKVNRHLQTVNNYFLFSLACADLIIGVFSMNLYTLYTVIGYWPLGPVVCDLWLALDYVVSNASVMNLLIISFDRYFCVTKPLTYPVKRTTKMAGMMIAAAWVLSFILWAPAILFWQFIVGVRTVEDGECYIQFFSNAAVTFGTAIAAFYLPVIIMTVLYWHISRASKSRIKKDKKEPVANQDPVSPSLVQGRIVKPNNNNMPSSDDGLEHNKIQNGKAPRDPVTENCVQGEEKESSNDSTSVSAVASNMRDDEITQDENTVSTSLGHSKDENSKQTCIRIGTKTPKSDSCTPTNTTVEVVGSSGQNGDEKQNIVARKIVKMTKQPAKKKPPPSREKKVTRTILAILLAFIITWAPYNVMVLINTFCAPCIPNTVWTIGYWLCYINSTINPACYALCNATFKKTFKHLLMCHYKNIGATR

Histamine H1 receptor = Histamine H1 receptor (Homo sapiens, UniProt P35367)
[4] = molecular target: Voltage-gated inwardly rectifying potassium channel KCNH2 (Homo sapiens, UniProt Q12809); assay type: functional; conditions: read-out: AC50
Motilin receptor = Motilin receptor (Homo sapiens, UniProt O43193)
[5] = molecular target: T3, Prostaglandin G/H synthase 1 (Rattus norvegicus, UniProt Q63921); assay type: functional
T3 sequence (Q63921 whole entry): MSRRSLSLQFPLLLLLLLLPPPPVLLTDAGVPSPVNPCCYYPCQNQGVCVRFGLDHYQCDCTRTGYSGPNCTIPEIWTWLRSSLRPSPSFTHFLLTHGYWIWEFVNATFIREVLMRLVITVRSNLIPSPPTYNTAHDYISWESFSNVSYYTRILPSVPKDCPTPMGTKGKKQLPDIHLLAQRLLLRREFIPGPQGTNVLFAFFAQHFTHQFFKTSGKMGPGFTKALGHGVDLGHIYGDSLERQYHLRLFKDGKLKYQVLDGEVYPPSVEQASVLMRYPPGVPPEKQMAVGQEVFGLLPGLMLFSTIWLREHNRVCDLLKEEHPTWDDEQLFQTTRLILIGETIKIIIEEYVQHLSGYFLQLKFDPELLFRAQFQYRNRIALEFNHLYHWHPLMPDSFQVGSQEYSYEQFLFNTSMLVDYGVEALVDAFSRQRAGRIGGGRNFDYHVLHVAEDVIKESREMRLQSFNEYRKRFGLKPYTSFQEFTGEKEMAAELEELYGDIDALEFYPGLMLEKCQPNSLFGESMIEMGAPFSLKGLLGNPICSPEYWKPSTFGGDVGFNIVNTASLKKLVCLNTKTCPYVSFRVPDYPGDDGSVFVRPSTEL

[6] = molecular target: T4, Equilibrative nucleoside transporter 1 (Homo sapiens, UniProt Q99808)
T4 sequence (Q99808 whole entry): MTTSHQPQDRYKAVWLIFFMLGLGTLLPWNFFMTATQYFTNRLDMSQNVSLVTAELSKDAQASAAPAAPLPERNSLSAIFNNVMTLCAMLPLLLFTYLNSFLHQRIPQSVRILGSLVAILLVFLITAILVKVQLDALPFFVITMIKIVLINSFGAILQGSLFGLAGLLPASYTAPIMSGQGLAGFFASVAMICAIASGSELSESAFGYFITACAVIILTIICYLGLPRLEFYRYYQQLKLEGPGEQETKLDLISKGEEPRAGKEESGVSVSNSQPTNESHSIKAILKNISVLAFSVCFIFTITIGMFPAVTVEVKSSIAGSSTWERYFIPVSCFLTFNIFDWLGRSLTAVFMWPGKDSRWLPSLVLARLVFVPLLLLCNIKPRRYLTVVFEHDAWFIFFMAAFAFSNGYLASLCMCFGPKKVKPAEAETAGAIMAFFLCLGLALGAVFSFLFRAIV

[7] = molecular target: Sodium-dependent dopamine transporter (Homo sapiens, UniProt Q01959)
[8] = molecular target: Sodium-dependent serotonin transporter (Homo sapiens, UniProt P31645)
Histamine H3 receptor = Histamine H3 receptor (Homo sapiens, UniProt Q9Y5N1)
Further: assay procedure not described here.

Sequence of Voltage-dependent L-type calcium channel subunit alpha-1C (P22002 whole entry): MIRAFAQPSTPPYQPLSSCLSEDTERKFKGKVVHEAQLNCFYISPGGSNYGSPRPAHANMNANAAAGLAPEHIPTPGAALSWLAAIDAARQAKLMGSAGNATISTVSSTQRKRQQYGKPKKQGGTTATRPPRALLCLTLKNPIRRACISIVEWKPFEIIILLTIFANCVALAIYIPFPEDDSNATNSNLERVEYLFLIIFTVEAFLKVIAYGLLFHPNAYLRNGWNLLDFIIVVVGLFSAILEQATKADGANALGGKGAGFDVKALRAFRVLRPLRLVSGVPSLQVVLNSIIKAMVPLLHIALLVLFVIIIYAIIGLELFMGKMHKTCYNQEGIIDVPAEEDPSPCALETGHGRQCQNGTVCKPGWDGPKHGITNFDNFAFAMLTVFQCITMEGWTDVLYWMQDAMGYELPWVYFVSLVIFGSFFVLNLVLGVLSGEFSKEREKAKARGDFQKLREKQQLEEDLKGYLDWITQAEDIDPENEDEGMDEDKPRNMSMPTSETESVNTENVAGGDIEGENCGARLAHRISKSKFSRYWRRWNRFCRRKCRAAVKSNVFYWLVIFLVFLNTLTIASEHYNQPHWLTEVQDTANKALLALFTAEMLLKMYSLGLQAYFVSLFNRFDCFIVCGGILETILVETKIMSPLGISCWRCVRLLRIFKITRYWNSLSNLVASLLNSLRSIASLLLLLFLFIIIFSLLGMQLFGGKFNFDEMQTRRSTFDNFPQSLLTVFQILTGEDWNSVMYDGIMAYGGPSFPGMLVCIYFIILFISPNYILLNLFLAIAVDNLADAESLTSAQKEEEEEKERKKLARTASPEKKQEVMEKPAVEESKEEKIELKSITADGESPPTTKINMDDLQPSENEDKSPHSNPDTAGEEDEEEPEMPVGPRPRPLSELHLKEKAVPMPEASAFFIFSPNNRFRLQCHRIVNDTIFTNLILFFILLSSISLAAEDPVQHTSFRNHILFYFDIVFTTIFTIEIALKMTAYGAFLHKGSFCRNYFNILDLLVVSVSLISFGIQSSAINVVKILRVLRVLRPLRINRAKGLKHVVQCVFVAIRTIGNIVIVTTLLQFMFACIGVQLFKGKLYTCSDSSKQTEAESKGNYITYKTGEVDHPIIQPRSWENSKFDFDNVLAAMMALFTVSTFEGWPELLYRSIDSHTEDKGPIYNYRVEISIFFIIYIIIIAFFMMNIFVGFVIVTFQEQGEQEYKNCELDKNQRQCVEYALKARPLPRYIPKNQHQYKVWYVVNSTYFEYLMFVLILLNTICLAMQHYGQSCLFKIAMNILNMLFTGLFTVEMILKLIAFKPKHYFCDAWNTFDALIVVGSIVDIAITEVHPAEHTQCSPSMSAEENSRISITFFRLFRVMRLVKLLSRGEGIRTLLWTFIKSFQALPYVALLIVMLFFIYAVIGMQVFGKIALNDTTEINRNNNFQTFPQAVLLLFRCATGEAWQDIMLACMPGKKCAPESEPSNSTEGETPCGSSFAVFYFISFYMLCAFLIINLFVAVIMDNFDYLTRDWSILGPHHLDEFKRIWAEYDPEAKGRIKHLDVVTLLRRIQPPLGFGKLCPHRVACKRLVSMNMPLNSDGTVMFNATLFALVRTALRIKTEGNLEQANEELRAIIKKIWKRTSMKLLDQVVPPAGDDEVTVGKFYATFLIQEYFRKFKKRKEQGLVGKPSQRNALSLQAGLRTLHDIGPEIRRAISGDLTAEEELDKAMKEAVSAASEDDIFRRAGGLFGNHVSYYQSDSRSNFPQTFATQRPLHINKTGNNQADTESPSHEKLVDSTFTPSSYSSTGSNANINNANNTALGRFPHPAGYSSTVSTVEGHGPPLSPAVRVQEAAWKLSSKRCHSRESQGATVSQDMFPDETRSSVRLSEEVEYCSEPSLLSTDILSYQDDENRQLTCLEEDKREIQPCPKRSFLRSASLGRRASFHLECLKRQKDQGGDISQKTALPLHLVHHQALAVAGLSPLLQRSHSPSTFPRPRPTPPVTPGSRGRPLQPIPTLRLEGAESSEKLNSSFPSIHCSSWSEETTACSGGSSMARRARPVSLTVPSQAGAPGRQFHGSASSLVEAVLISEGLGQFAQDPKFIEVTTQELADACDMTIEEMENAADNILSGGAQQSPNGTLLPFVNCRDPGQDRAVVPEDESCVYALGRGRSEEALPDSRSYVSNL
Sequence of Sodium-dependent serotonin transporter (P31645 whole entry): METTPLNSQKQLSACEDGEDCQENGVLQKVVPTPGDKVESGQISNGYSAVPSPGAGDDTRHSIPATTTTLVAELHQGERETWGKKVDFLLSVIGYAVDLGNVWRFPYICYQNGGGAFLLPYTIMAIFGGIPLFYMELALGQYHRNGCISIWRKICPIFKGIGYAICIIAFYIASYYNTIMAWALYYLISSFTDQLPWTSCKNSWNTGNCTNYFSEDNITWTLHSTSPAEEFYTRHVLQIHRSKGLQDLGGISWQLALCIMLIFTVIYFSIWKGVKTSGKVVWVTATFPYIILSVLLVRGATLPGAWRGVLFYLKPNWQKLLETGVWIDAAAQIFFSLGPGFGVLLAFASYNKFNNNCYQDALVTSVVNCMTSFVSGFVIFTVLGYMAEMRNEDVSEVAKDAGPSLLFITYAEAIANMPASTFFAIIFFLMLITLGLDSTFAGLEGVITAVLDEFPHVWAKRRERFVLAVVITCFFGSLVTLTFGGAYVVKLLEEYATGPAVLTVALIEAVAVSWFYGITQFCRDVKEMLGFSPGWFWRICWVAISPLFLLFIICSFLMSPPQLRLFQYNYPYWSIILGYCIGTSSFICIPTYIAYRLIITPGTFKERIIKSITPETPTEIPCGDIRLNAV
Sequence of Histamine H3 receptor (Q9Y5N1 whole entry): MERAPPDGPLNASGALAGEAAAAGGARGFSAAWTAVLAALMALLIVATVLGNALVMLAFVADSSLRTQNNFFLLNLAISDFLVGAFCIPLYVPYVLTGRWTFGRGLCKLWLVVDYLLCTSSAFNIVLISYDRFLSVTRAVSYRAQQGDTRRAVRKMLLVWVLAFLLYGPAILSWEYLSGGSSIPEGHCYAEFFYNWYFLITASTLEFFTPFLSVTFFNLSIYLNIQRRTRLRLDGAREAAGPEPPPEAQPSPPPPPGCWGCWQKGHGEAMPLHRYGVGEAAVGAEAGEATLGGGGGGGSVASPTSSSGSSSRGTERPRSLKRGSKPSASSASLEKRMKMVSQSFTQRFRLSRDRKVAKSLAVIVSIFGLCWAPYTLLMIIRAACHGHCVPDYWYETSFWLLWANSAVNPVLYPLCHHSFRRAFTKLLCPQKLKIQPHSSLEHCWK
Sequence of Motilin receptor (O43193 whole entry): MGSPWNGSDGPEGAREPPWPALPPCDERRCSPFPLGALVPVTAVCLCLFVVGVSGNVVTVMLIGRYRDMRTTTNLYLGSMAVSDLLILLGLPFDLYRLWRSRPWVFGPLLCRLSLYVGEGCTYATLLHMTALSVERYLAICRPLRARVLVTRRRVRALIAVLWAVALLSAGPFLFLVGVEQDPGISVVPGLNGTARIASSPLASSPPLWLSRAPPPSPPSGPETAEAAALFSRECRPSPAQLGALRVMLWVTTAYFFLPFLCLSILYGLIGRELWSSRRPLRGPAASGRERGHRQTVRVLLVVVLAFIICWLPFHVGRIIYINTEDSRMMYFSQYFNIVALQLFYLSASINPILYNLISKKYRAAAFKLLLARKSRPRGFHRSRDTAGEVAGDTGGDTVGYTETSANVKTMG
Sequence of Sodium-dependent dopamine transporter (Q01959 whole entry): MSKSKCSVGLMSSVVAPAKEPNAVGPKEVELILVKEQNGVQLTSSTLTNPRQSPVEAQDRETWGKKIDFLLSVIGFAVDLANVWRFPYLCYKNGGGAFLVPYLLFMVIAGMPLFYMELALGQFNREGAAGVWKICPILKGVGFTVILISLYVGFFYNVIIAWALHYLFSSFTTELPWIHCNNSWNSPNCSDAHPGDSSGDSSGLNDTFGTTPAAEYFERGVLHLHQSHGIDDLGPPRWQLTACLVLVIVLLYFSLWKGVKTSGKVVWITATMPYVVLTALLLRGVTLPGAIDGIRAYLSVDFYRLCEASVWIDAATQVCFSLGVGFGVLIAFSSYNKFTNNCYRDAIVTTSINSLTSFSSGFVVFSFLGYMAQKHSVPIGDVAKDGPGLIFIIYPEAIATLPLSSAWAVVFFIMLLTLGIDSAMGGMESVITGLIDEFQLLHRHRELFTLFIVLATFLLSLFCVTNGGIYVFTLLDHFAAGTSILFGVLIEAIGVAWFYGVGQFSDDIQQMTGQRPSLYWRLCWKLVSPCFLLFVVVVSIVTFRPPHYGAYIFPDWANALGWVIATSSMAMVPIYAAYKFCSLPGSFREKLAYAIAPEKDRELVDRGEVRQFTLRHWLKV
Sequence of Histamine H1 receptor (P35367 whole entry): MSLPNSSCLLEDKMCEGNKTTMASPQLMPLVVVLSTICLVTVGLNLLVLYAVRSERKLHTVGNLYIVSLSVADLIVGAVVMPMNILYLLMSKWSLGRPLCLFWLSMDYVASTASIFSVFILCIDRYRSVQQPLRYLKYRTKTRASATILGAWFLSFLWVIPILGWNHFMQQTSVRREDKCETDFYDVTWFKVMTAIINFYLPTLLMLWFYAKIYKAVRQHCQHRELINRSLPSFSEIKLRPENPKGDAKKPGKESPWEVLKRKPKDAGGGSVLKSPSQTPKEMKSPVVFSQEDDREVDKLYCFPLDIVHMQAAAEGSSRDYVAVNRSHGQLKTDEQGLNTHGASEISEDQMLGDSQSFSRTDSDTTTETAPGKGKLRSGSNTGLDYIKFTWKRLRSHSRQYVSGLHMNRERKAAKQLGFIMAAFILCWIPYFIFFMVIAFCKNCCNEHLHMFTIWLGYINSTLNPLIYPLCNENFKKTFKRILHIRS

| AC50 [1] [µM] | AC50 [2] [µM] | AC50 [3] [µM] | AC50 (Histamine H1 receptor) [µM] | AC50 (Motilin receptor) [µM] | AC50 [5] [µM] | AC50 [6] [µM] | AC50 [7] [µM] | AC50 [8] [µM] | AC50 (Histamine H3 receptor) [µM] | Structure (SMILES) | AC50 [4] [µM] |
| --- | --- | --- | --- | --- | --- | --- | --- | --- | --- | --- | --- |
| > 10 | > 10 | > 10 | > 10 | > 10 | > 10 | > 10 | > 10 | > 10 |  | CC(=O)OCC1=C(C(=O)O)N2C(=O)[C@@H](NC(=O)CSc3ccncc3)[C@H]2SC1 [CEPHAPIRIN] | > 30 |
| > 30 | > 30 | > 10 | > 30 | > 30 | > 30 | > 30 | > 30 | > 30 | > 30 | Nc1nc(Cl)nc2c1ncn2[C@@H]1O[C@H](CO)[C@@H](O)[C@@H]1F [CLOFARABINE] | > 30 |
| > 10 | 0.069 | 0.29 | > 30 | > 10 | > 10 | > 30 | > 30 | > 30 |  | CN(C)CCOC(=O)C(c1ccccc1)C1(O)CCCC1 (stereo not drawn) [CYCLOPENTOLATE] | > 30 |
| > 10 | > 10 | > 10 | > 10 | > 30 | 34.3 | > 10 | > 10 | > 10 |  | COC(=O)[C@H]1[C@H]2C[C@@H]3c4[nH]c5ccccc5c4CCN3C[C@H]2C[C@@H](OC(=O)c2cc(OC)c(OC)c(OC)c2)[C@@H]1OC [DESERPIDINE] | 2.45 |

Further lines, the molecule ahead of its results:

| Structure (SMILES) | AC50 [1] [µM] | AC50 [2] [µM] | AC50 [3] [µM] | AC50 (Histamine H1 receptor) [µM] | AC50 (Motilin receptor) [µM] | AC50 [5] [µM] | AC50 [6] [µM] | AC50 [7] [µM] | AC50 [8] [µM] | AC50 (Histamine H3 receptor) [µM] | AC50 [4] [µM] |
| --- | --- | --- | --- | --- | --- | --- | --- | --- | --- | --- | --- |
| OCC(O)COc1ccc(Cl)cc1 (stereo not drawn) | > 10 | > 10 | > 10 | > 10 | > 10 | > 10 | > 10 | > 10 | > 10 | > 10 | > 30 |
| O=C(O[C@H]1C[N+]2(CCCOc3ccccc3)CCC1CC2)C(O)(c1cccs1)c1cccs1 [ACLIDINIUM BROMIDE] | > 10 | 0.018 |  | 4.5 | > 10 | > 30 | > 30 | > 10 | > 10 | > 10 | 0.43 |
| Cc1cnc(Nc2ccc(OCCN3CCCC3)cc2)nc1Nc1cccc(S(=O)(=O)NC(C)(C)C)c1 [FEDRATINIB] | > 10 | 1.2 | > 10 | > 10 | 14 | > 30 | > 30 | 0.08 | 0.732 | 3.9 | 0.82 |
